PMC3608651, “A Broad Profile of Co-Dominant Epitopes Shapes the Peripheral Mycobacterium tuberculosis Specific CD8+ T-Cell Immune Response in South African Patients with Active Tuberculosis” (PLoS ONE, 2013)

How the values were obtained:
Type in all cases: binding
HLA-A*02:01 = HLA-A*02:01 (Homo sapiens, UniProt P04439, D140Y/D185E/D98H/E176V/E277Q/G131W/G231S/I119V/I121R/I166T/I218V/L300P/L318F/N151K/N90K/P208A/P217A/Q86G/Q94H/R138H/R169H/T345S); details: percent relative the binding of positive control peptide […]; plate-bound monomer 0.5 µg/ml; duplicated experiments; positive binder >40%
HLA-A*24:02 = HLA-A*24:02 (Homo sapiens, UniProt P04439, D101N/D140Y/D185E/E176V/E190D/F33S/G103R/G107R/I119L/I121M/I306V/K335N/L105A/L180Q/L300P/N151K/N90K/Q86E/Q94H/R106L/R138H/R89G/T104I/T345S/V100E/W191G/Y123F); details: percent relative the binding of positive control peptide […]; duplicated experiments; positive binder >40%
HLA-A*30:01 = HLA-A*30:01 (Homo sapiens, UniProt P04439, D140H/D185E/E176W/F33S/G80R/H175R/K168Q/R138E/R41S); details: percent relative the binding of positive control peptide […]; duplicated experiments; positive binder >40%
HLA-A*30:02 = HLA-A*30:02 (Homo sapiens, UniProt P04439, D101N/D140H/D185E/E176R/F33S/G80R/H175R/K168Q/Q94H/R138E/R41S/V100E); details: percent relative the binding of positive control peptide […]; duplicated experiments; positive binder >40%
HLA-A*68:01 = HLA-A*68:01 (Homo sapiens, UniProt P04439, A269V/D185E/E176V/E277Q/E87N/F33Y/G231S/I121M/I166T/I218V/L180W/L300P/L318F/N151K/P208A/P217A/Q86R/R169H/T345S); details: percent relative the binding of positive control peptide […]; duplicated experiments; positive binder >40%
HLA-B*07:02 = HLA-B*07:02 (Homo sapiens, UniProt P01889); details: percent relative the binding of positive control peptide […]; duplicated experiments; positive binder >40%
HLA-B*58:01 = HLA-B*58:01 (Homo sapiens, UniProt P01889, A329T/C349S/D201E/D98Y/E176V/E187L/E204Q/E69T/G107R/I218V/I90N/K202T/L105A/L119I/N104I/N87E/Q89R/Q94S/R106L/R155S/R180L/R86G/S101N/S121R/S35A/S48A/T118I/V127L/V306I/V36M/Y140S/Y91M); details: percent relative the binding of positive control peptide […]; duplicated experiments; positive binder >40%
HLA-C*07:01 = HLA-C*07:01 (Homo sapiens, UniProt P10321, K90N/S123Y); details: percent relative the binding of positive control peptide […]; duplicated experiments; positive binder >40%

Row | Substance | Bind A*02:01 (HLA-A*02:01) | Bind A*24:02 (HLA-A*24:02) | Bind A*30:01 (HLA-A*30:01) | Bind A*30:02 (HLA-A*30:02) | Bind A*68:01 (HLA-A*68:01) | Bind B*07:02 (HLA-B*07:02) | Bind B*58:01 (HLA-B*58:01) | Bind C*07:01 (HLA-C*07:01)
1 | IPAEFLENF | 17% | 48% | 0% | 0% | 0% | 47% | 0% | 2%
2 | GGNNSPAVY | 0% | 0% | 0% | 90% | 3% | 0% | 0% | 45%
3 | GGYKAADMW | 0% | 34% | 0% | 0% | 11% | 0% | 61% | 0%
4 | SQGMGPSLI | 50% | 55% | 11% | 0% | 0% | 2% | 11% | 22%
5 | AEFLENFVR | 12% | 1% | 0% | 0% | 63% | 0% | 10% | 13%
6 | NGW DINTPA | 87% | 36% | 8% | 0% | 4% | 21% | 0% | 14%
7 | PAFEW YYQS | 76% | 24% | 0% | 0% | 6% | 15% | 0% | 2%
8 | IPKLVANNT | 0% | 0% | 5% | 0% | 0% | 41% | 16% | 0%
9 | SAAIGLSMA | 67% | 0% | 0% | 0% | 0% | 31% | 5% | 0%
10 | PNGTHSWEY | 0% | 0% | 0% | 77% | 9% | 8% | 0% | 48%
11 | LSIVMPVGG | 33% | 0% | 0% | 46% | 0% | 0% | 29% | 0%
12 | RLWVYCGNG | 45% | 0% | 0% | 65% | 12% | 2% | 8% | 9%
13 | SW EYW GAQL | 31% | 79% | 0% | 0% | 0% | 1% | 0% | 0%
14 | MGDAGGYKA | 45% | 0% | 0% | 0% | 9% | 0% | 0% | 0%
15 | GANIPAEFL | 41% | 0% | 0% | 0% | 0% | 0% | 16% | 0%
16 | VQFQSGGNN | 0% | 0% | 0% | 51% | 0% | 0% | 0% | 0%
